The conditions of data set [1]: human, in vivo. The procedure: A multiple-ascending dose study is conducted to study the safety, tolerability, and pharmacokinetics of erodible tablets containing Compound 2 administered as 3 consecutive, once-daily oral doses in healthy participants. Tablets are prepared having the composition set forth in Table 18 below using a direct compression process as described for Example 22 in Table 7 above. Average solid fraction of tablets was 0.90. The Compound 2 oral doses for this study are summarized in the following 4 “dose cohorts”: • Cohort 1, 4-mg dose: 1 tablet of 4 mg Compound 2+300 mg SNAC • Cohort 2, 8-mg dose:2 tablets of 4 mg Compound 2+300 mg SNAC • Cohort 3, 12-mg dose: 1 tablet of 12 mg Compound 2+300 mg SNAC • Cohort 4, 24-mg dose:2 tablets of 12 mg Compound 2+300 mg SNAC Sufficient participants are randomly assigned to study intervention to ensure approximately 10 evaluable participants (8 receiving Compound 2 and 2 receiving placebo) from each of 4 dose cohorts complete the study. In each cohort, eligible participants are randomly assigned to receive 3 once-daily doses of either Compound 2 or placebo. Data for the 4 cohorts are provided in Table 18 below, along with a comparison to IV data from a separate study having similar protocol design and conducted at the same clinical site.

Details of data set [2]: species or system cynomolgus monkeys. Particulars: cynomolgus monkey, in vivo, po. As to the method:
High resolution liquid chromatography/mass spectrometry (HR-LC/MS) is used to measure the concentrations of Compound 2 in cynomolgus monkey plasma. Standards and controls are prepared in cynomolgus monkey plasma using Compound 2, and any dilutions required to bring samples into the quantitative range are also performed in control cynomolgus monkey plasma. To control assay variability, an IS is added to all the standards and samples.
For Studies with Examples 14, 15, 16, 17, 18, 19: Compound 2 and the IS are extracted from monkey plasma (50 μL) by protein precipitation using isopropyl alcohol and methanol (50:50 v/v). The samples are then centrifuged (4000 rpm for 10 minutes) and the supernatant is transferred to a Siricco Protein Precipitation Plate. After centrifugation (4000 rpm for 20 minutes), the samples are loaded on a Sep-Pak tC18 SPE microelution plate that is conditioned with 2% formic acid in water. […]
Pharmacokinetic (PK) parameters of Compound 2 are determined after a single 10-mg oral dose of Compound 2 in different formulations to male and female cynomolgus monkeys. […] Plasma concentrations of Compound 2 are detected through 504 hours post-dose.

A short description of data set [3]: in vivo. Further details: species or system cynomolgus monkeys. The following applies: cynomolgus monkey, iv. The procedure:
Plasma concentrations of Compound 2 are determined by a LC/MS method. Compound 2 and an internal standard (IS) are extracted from 100% monkey plasma (25 μL) using 50 mM ammonium bicarbonate. After centrifugation, the supernatant is transferred and 2B10 biotinylated antibody along with 5C9 biotinylated antibody (5 μL each) are added. The samples are then centrifuged, T1 Streptavidin beads are added (20 μL) for 30 minutes, and the analyte is eluted from the beads with 30% acetonitrile with 5% formic acid in water followed by mixing. A final sample (10 μL) containing 31% acetonitrile in 10% formic acid is loaded onto a Supelco Analytical Discovery BIO Wide Pore C5-3, 5 cm×0.1 mm for LC/MS analysis. The plasma PK of Compound 2 is evaluated in male cynomolgus monkeys following a single IV dose (50 nmol/kg). Blood samples are collected over 504 hours. Plasma is harvested from blood samples by centrifugation and stored frozen until analysis. Plasma concentrations of Compound 2 are detected through 504 hours post-dose. PK parameters for one animal are extrapolated using the concentration versus time data up to 72 hours post-dose.

Data set [4] is described as follows: in vivo. Further details: species or system cynomolgus monkeys. Particulars: male, cynomolgus monkey, iv. The procedure: Plasma concentrations of Compound 1 are determined by a LC/MS method that measures intact Compound 1, peptide plus linked time extension. For each assay, Compound 1 and an IS, are extracted from 100% monkey plasma. This procedure involves initially thoroughly mixing the plasma sample (50 μl) with acetonitrile:water:formic acid (50:50:0.1; 25 μl) plus 2-propanol:methanol (50:50; 250 μl). Two distinct layers are formed upon centrifugation with Compound 1 and the IS contained in the supernatant layer. After moving 200-μL of the supernatant layer to the Sirocco Protein Precipitation plate, the plate is centrifuged (conditions). Next 600-μL of Water:Formic (100:2; 600 μl) are added to each well of the Sirocco plate, and the plate is vortexed, sealed, and centrifuged. After SPE plate conditioning, the sample from the Sirocco plate (700 μl) is transferred to a Waters, SPE plate, and centrifuged. The SPE plate, after washing, is eluted with acetonitrile:formic acid (100:2; 80 μl) into Invitrosol:water:water:formic acid 100:2 (35:15:50; 100 μl). The final sample (25 μl) is loaded onto a Waters, ACQUITY UPLC BEH C18 Column, 130 Å, (2.1 mm×100 mm, 1.7 μm). The column effluent is injected into a Sciex API 5500 mass spectrometer for detection and quantitation. Male cynomolgus monkeys are administered a single intravenous dose (0.05 mg/kg) or oral formulation (10 mg/tablet) of Compound 1. […]

The values below come from patent US20240226017A1, “ERODIBLE TABLET” (Eli Lilly and Company, priority 2021, published 2024).

Read-outs that look alike come from different tables or passages of the source. Marks after values point to notes of the source that are not given here.

With `CC[C@H](C)[C@H](NC(=O)[C@H](CC(C)C)NC(=O)[C@](C)(Cc1ccc(O)cc1)NC(=O)[C@@H](CCC(=O)O)NC(=O)[C@@H](NC(=O)[C@H](Cc1ccccc1)NC(=O)[C@H](CCC(=O)O)NC(=O)C(C)(C)NC(=O)[C@H](CCC(N)=O)NC(=O)[C@H](C)NC(=O)[C@H](CCCCNC(=O)COCCOCCNC(=O)COCCOCCNC(=O)CC[C@H](NC(=O)CCCCCCCCCCCCCCCCC(=O)O)C(=O)O)NC(=O)[C@H](CCCN)NC(=O)[C@H](CC(=O)O)NC(=O)[C@H](CC(C)C)NC(=O)[C@](C)(CC(C)C)NC(=O)[C@@H](NC(=O)[C@H](CO)NC(=O)[C@H](Cc1ccncc1)NC(=O)[C@H](CC(=O)O)NC(=O)[C@H](CO)NC(=O)[C@@H](NC(=O)[C@](C)(Cc1ccccc1F)NC(=O)[C@@H](NC(=O)CNC(=O)[C@H](CCC(=O)O)NC(=O)C(C)(C)NC(=O)[C@@H](N)Cc1ccc(O)cc1)[C@@H](C)O)[C@@H](C)O)[C@@H](C)CC)[C@@H](C)CC)C(=O)N[C@@H](CCC(=O)O)C(=O)NCC(=O)NCC(=O)N1CCC[C@H]1C(=O)N[C@@H](CO)C(=O)N[C@@H](CO)C(=O)NCC(=O)N[C@@H](C)C(=O)N1CCC[C@H]1C(=O)N1CCC[C@H]1C(=O)N1CCC[C@H]1C(=O)N[C@@H](CO)C(N)=O` [Compound 2, Y-Aib-EGT-αMeF(2F)-TSD-4Pal-SI-αMeL-LD-Orn-K((2-[2-(2-Amino-ethoxy)-ethoxy]-acetyl)2-(γ-Glu)-CO-(CH2)16-CO2H)AQ-Aib-EFI-(D-Glu)-αMeY-LIEGGPSSGAPPPS-NH2], in data set [1] (0.5 mg), the “Oral Bioavailability Based on AUC (0-168)” value came out at 100% and the “Oral Bioavailability Based on AUC (0-∞)” value amounted to 100%. Also, in data set [1] (iv), the “Dose-Normalized AUC(0-168)” value is listed as 22800^e ^ ng · h/mL · mg and the “Dose-Normalized AUC(0-∞)” value is 49200^e ^ ng · h/mL · mg. In addition, in data set [2], the “Plasma concentrations detected through (post-dose)” value came out at 504 h. In addition, the “Plasma concentrations detected through (post-dose)” value in “in vivo [3]” came out at 504 h. For the same molecule, in “in vivo [3]” (male, 50 nmol/kg), the AUC0-inf turned out to be 84.232 µM·h, the AUC(0-inf) stood at 84.2 µM·h, the CL was 14.2 mL/day/kg and the clearance was 14.2 mL/day/kg. The same molecule registered a Cmax in “in vivo [3]” (male, 50 nmol/kg, Cmax) of 1050 nM. In the data set “in vivo [3]” (male, 50 nmol/kg, T1/2), the half-life was 84 h. The molecule further gave a clearance in the data set “in vivo [4]” (CL) of 13 mL/day/kg. Also, the half-life in “in vivo [4]” (T1/2) is 96 h.
